Data as given in ChEMBL document CHEMBL3751819, “Navigating into the chemical space between MGCD0103 and SAHA: novel histone deacetylase inhibitors as a promising lead” (Medchemcomm, 2015).
Active and inactive are the calls of the source. The rule behind the calls is not given here.

What was measured:
MCF7 [1] = assay: Antiproliferative activity against human MCF7 cells assessed as reduction in cell viability after 24 hrs by MTT assay; format: functional, cell-based; settings: MCF7, 24 h
HeLa = assay: Induction of cell cycle arrest in human HeLa cells assessed as accumulation at G0/G1 phase at 2 uM after 24 hrs by propidium iodide staining based flow cytometry (reference value: 0.5 to 0.52%); format: functional
[2] = target: T1, Protein deacetylase HDAC6 (Homo sapiens, UniProt Q9UBN7); assay: Inhibition of HDAC6 (unknown origin) using Boc-Lys(acetyl)-AMC as substrate preincubated for 5 mins followed by substrate addition by fluorescence assay
T1 sequence (Q9UBN7 whole entry): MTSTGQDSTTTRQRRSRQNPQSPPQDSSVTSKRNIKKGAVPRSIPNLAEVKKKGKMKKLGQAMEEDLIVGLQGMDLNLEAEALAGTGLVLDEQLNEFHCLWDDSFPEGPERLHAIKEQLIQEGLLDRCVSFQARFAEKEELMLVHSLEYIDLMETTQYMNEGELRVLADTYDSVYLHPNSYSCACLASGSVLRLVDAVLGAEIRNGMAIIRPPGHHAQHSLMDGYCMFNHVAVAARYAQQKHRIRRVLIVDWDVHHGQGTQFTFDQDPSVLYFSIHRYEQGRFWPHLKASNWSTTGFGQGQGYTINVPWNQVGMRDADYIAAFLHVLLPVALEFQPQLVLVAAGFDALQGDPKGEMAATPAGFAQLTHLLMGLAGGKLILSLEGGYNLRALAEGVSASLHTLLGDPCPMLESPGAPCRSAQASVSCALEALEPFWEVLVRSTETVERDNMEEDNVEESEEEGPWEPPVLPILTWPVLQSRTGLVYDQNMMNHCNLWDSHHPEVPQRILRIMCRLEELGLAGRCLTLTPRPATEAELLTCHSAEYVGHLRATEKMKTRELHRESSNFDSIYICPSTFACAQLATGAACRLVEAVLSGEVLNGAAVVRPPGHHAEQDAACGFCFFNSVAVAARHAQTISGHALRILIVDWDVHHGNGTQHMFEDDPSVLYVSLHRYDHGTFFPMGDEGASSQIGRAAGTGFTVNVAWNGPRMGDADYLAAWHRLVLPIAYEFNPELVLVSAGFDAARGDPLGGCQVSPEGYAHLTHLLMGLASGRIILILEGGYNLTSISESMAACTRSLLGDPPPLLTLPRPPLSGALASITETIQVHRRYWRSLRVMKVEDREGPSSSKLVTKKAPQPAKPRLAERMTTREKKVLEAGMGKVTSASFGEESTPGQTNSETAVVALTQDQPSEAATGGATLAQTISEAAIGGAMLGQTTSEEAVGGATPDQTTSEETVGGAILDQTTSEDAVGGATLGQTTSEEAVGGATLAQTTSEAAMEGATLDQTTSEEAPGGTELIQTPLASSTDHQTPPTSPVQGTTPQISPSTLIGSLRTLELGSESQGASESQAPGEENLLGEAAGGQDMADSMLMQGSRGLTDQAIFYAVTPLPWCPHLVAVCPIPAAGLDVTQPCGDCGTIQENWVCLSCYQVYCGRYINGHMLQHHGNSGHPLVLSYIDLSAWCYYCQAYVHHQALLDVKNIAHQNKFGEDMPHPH

MCF7 [3] = assay: Antiproliferative activity against human MCF7 cells assessed as reduction in cell viability after 48 hrs by MTT assay; format: functional, cell-based; settings: MCF7, 48 h
[4] = target: T2, Protein deacetylase HDAC6 (Homo sapiens) (UniProt Q9UBN7); assay: Inhibition of HDAC6 in human A549 cells assessed as increase in acetylated tubulin expression at 5 uM incubated for 12 hrs by DAPI staining based immunofluorescence microscopy; format: cell-based
T2 sequence (whole entry): T1 sequence (Q9UBN7 whole entry)

A549 = assay: Antiproliferative activity against human A549 cells assessed as reduction in cell viability after 24 hrs by MTT assay; format: functional, cell-based; settings: A549, 24 h

| IC50 (MCF7 [1]) [µM] | IC50 [2] [µM] | IC50 (MCF7 [3]) [µM] | inhibition [4] | IC50 (A549) [µM] | Structure (SMILES) | Activity (HeLa) [%] |
| --- | --- | --- | --- | --- | --- | --- |
| 46 | 0.078 | 16 | Active | – | O=C(NO)c1ccc(CNc2nccc(-c3cccnc3)n2)cc1 | 0.93 |
| 46 | 0.069 | 23 | Active | 98 | O=C(/C=C/c1ccc(CNc2nccc(-c3cccnc3)n2)cc1)NO | 0.87 |
